The target in assay [1] is T1, glutathione-S-transferase (GST) tagged LXRalpha LBD (ligand binding domain) (Homo sapiens, UniProt Q13133).
T1 construct: purchased Invitrogen pv4655
T1 sequence (Q13133 209-447 limits assumed): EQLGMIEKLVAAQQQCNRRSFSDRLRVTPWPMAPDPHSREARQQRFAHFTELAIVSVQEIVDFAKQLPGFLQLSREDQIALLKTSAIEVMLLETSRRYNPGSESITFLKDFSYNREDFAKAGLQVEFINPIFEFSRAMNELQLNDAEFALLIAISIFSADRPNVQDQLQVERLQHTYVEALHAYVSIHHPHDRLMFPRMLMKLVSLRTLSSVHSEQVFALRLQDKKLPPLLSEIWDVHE
Nature of the assay: LanthaScreen TR-FRET Liver X Receptor Coactivator Assay, LXR alpha-LBD. It counts as biochemical. To be noted: for Emax: efficacy in relation to reference dual agonist T1317, read-out: LXR alpha activity at max dose (%) (Emax); for EC50: potency (Inflection Point) of co-activator recruitment, TR-FRET, read-out: LXR alpha IP. In a few lines:
(§1)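 TR-FRET read-out of coactivator recruitment: fluorescein-coactivator peptide plus Tb-anti-GST antibody added to LBD preincubated with compound; incubated at RT before reading.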

In assay [2] the target is T2, glutathione-S-transferase (GST) tagged LXRbeta LBD (ligand binding domain) (Homo sapiens, UniProt P55055).
T2 construct: purchased Invitrogen pv4658.pps
T2 sequence (P55055 222-460 limits assumed): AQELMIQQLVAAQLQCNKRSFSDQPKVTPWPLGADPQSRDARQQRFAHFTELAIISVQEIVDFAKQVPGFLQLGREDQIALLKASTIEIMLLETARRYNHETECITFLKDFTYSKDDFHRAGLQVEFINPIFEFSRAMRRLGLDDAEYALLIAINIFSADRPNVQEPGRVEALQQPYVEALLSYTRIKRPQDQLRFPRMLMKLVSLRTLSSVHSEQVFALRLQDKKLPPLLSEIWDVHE
Nature of the assay: LanthaScreen TR-FRET Liver X Receptor Coactivator Assay, LXR beta-LBD. In kind it is biochemical. The following applies: for Emax: efficacy in relation to reference dual agonist T1317, read-out: LXR beta activity at max dose (%) (Emax); for EC50: potency (Inflection Point) of co-activator recruitment, TR-FRET, read-out: LXR beta IP. In a few lines: as §1

The values that follow come from patent publication US10239849B2 (Merck Sharp & Dohme Corp., priority 2015, dated 2019).

On to `CN(C)C(=O)c1ccc(-c2cnc(N3CCN(S(=O)(=O)c4ccccc4C#N)CC3)c(C#N)c2)cc1Cl` [Example 1-9, 2-chloro-4-(5-cyano-6-{4-[(2-cyanophenyl)sulfonyl]piperazin-1-yl}pyridin-3-yl)-N,N-dimethylbenzamide], for which, in assay [1], the Emax was 46% and the EC50 came out at 0.618 µM. In addition, in assay [2], the Emax is 123% and the EC50 came out at 0.022 µM.

Take `CN(CC#N)C(=O)c1ccc(-c2cnc(N3CCN(C(=O)OC(C)(C)C)CC3)c(C#N)c2)cc1Cl` [Example 5-8, tert-butyl 4-(5-{3-chloro-4-[(cyanomethyl) (methyl)carbamoyl]phenyl}-3-cyanopyridin-2-yl)piperazine-1-carboxylate]: in assay [1], the Emax worked out at 58% and the EC50 was 14.9 µM. Further, in assay [2], the Emax came to 91% and the EC50 is 0.17 µM.

As to `CN(C)C(=O)c1ccc(-c2ccc(N3CCN(C(=O)c4c(F)cccc4Cl)CC3)c(Cl)c2)cc1Cl` [Example 4-5, 3,3′-dichloro-4′-{4-[(2-chloro-6-fluorophenyl)carbonyl]piperazin-1-yl}-N,N-dimethylbiphenyl-4-carboxamide], the maximum response (Emax) in assay [1] was 63%; in assay [2], 88%. The EC50 in assay [1] turned out to be 0.618 µM; in assay [2], 0.039 µM.

As for `CN(C)C(=O)c1ccc(-c2cnc(N3CCN(C(=O)[C@H](O)C(F)(F)F)CC3)c(C#N)c2)cc1Cl` [Example 2-11, 2-chloro-4-(5-cyano-6-{4-[(2S)-3,3,3-trifluoro-2-hydroxypropanoyl]piperazin-1-yl}pyridin-3-yl)-N,N-dimethylbenzamide], the Emax turned out to be 30% in assay [1] and 77% in assay [2]. In addition, the EC50 in assay [1] was 27.9 µM; in assay [2], 1.06 µM.

`CN(CCn1ccnc1)C(=O)c1ccc(-c2cnc(N3CCN(C(=O)OC(C)(C)C)CC3)c(C#N)c2)cc1Cl` [Example 5-21, tert-butyl 4-[5-(3-chloro-4-{[2-(1H-imidazol-1-yl)ethyl](methyl)carbamoyl}phenyl)-3-cyanopyridin-2-yl]piperazine-1-carboxylate]: the Emax in assay [1] was determined as 37%; in assay [2] it was 81%. In addition, the EC50 in assay [1] was 9.24 µM; in assay [2], 0.931 µM.

Regarding `CN(C)C(=O)c1ccc(-c2cnc(N3CCN(C(=O)OCc4cccc(Cl)c4)CC3)c(C#N)c2)cc1Cl` [Example 3-10, 3-chlorobenzyl 4-{5-[3-chloro-4-(dimethylcarbamoyl)phenyl]-3-cyanopyridin-2-yl}piperazine-1-carboxylate], the Emax in assay [1] turned out to be 79%; in assay [2] it was 75%. Further, the figures for the EC50 in assay [1] and in assay [2] were 23.5 µM and 0.068 µM, respectively.

In the case of `CC(C)(C)OC(=O)N1CCN(c2ncc(-c3ccc(C(=O)N4CC[C@@H](O)C4)c(Cl)c3)cc2C#N)CC1` [Example 5-12, tert-butyl 4-[5-(3-chloro-4-{[(3R)-3-hydroxypyrrolidin-1-yl]carbonyl}phenyl)-3-cyanopyridin-2-yl]piperazine-1-carboxylate], in assay [1], the maximal response (Emax) was 37% and the EC50 turned out to be 8.44 µM. In addition, in assay [2], the Emax amounted to 60% and the EC50 turned out to be 0.481 µM.

`CCCC(O)(C(=O)N1CCN(c2ncc(-c3ccc(C(=O)N(C)C)c(Cl)c3)cc2C#N)CC1)C(F)(F)C(F)(F)F` (stereo not shown) [Example 2-36, 2-chloro-4-(5-cyano-6-{4-[2-hydroxy-2-(pentafluoroethyl)pentanoyl]piperazin-1-yl}pyridin-3-yl)-N,N-dimethylbenzamide]: in assay [1], the Emax came out at 36% and the EC50 was determined as 5.13 µM. Moreover, in assay [2], the Emax was 81% and the EC50 was 0.205 µM.

Consider `CN(C)C(=O)c1ccc(-c2cnc(N3CCN(C(=O)C4(c5ccccc5F)CCCC4)CC3)c(C#N)c2)cc1Cl` [Example 2-29, 2-chloro-4-[5-cyano-6-(4-{[1-(2-fluorophenyl)cyclopentyl]carbonyl}piperazin-1-yl)pyridin-3-yl]-N,N-dimethylbenzamide], for which, in assay [1], the Emax turned out to be 57% and the EC50 stood at 4.23 µM. Besides, in assay [2], the Emax is 93% and the EC50 was 0.015 µM.

`CN(C)C(=O)c1ccc(-c2cnc(N3CCN(C(=O)[C@](O)(c4ccccc4)C(F)(F)F)CC3)c(C#N)c2)cc1Cl` [Example 2-2, 2-chloro-4-(5-cyano-6-{4-[(2R)-3,3,3-trifluoro-2-hydroxy-2-phenylpropanoyl]piperazin-1-yl}pyridin-3-yl)-N,N-dimethylbenzamide]: in assay [1], the maximal effect (Emax) is 61% and the EC50 came out at 0.617 µM. In assay [2], the Emax was 102% and the EC50 came to 0.001 µM.

For the compound `CN(C)C(=O)c1ccc(-c2cnc(N3CCN(C(=O)C(O)(C4CCCCC4)C(F)(F)F)CC3)c(C#N)c2)cc1Cl` (stereo not shown) [Example 2-33, 2-chloro-4-{5-cyano-6-[4-(2-cyclohexyl-3,3,3-trifluoro-2-hydroxypropanoyl)piperazin-1-yl]pyridin-3-yl}-N,N-dimethylbenzamide], in assay [1], the Emax was 27% and the EC50 was 3.29 µM. Further, in assay [2], the Emax is 115% and the EC50 came to 0.162 µM.

As for `CNC(=O)c1ccc(-c2cnc(N3CCN(C(=O)[C@](O)(c4ccccc4)C(F)(F)F)CC3)c(C#N)c2)cc1Cl` [Example 2-28, 2-chloro-4-(5-cyano-6-{4-[(2R)-3,3,3-trifluoro-2-hydroxy-2-phenylpropanoyl]piperazin-1-yl}pyridin-3-yl)-N-methylbenzamide], the Emax is 30% in assay [1] and 98% in assay [2]. Further, the EC50 in assay [1] stood at 1.93 µM; in assay [2], 0.012 µM.

As for `CN(C)C(=O)c1ccc(-c2cc(Cl)c(N3CCN(S(=O)(=O)c4c(Cl)cccc4Cl)CC3)c(Cl)c2)cc1Cl` [Example 4-10, 3,3′,5′-trichloro-4′-{4-[(2,6-dichlorophenyl)sulfonyl]piperazin-1-yl}-N,N-dimethylbiphenyl-4-carboxamide], in assay [1], the Emax turned out to be 30% and the EC50 was 1.26 µM. Further, in assay [2], the Emax was 77% and the EC50 turned out to be 0.094 µM.

As to `CN(C)C(=O)c1ccc(-c2cnc(N3CCN(C(=O)OCc4ccccc4C(F)(F)F)CC3)c(C#N)c2)cc1Cl` [Example 3-11, 2-(trifluoromethyl)benzyl 4-{5-[3-chloro-4-(dimethylcarbamoyl)phenyl]-3-cyanopyridin-2-yl}piperazine-1-carboxylate], in assay [1], the Emax was 39% and the EC50 is 1.2 µM. In addition, in assay [2], the Emax turned out to be 96% and the EC50 turned out to be 0.079 µM.

`CN(C)C(=O)c1ccc(-c2cnc(N3CC4CCC3CN4C(=O)OC(C)(C)C)c(C#N)c2)cc1Cl` (stereo not shown) [Example 8-8, tert-butyl 5-{5-[3-chloro-4-(dimethylcarbamoyl)phenyl]-3-cyanopyridin-2-yl}-2,5-diazabicyclo[2.2.2]octane-2-carboxylate]: in assay [1], the Emax came out at 38% and the EC50 stood at 0.882 µM. In assay [2], the maximal effect (Emax) was 68% and the EC50 is 0.064 µM.

Regarding `CN(CCn1cncn1)C(=O)c1ccc(-c2cnc(N3CCN(C(=O)OC(C)(C)C)CC3)c(C#N)c2)cc1Cl` [Example 5-24, tert-butyl 4-[5-(3-chloro-4-{methyl[2-(1H-1,2,4-triazol-1-yl)ethyl]carbamoyl}phenyl)-3-cyanopyridin-2-yl]piperazine-1-carboxylate], in assay [1], the Emax was found to be 52% and the EC50 was determined as 8.46 µM. For the same compound, in assay [2], the Emax is 71% and the EC50 worked out at 0.118 µM.

Turning to `CN(C)C(=O)c1ccc(-c2ccc(N3CC4CCC(C3)N4C(=O)OC(C)(C)C)c(Cl)c2)cc1Cl` [Example 8-10, tert-butyl 3-[3,3′-dichloro-4′-(dimethylcarbamoyl)biphenyl-4-yl]-3,8-diazabicyclo[3.2.1]octane-8-carboxylate], the Emax in assay [1] is 64%; in assay [2], 63%. Further, the EC50 was found to be 0.66 µM in assay [1] and 0.07 µM in assay [2].

On to `CN(C)C(=O)c1ccc(-c2cnc(N3CCN(C(=O)OC(C)(C)C)CC3)c(C#N)c2)cc1C(F)(F)F` [Example 8-9, tert-butyl 4-{3-cyano-5-[4-(dimethylcarbamoyl)-3-(trifluoromethyl)phenyl]pyridin-2-yl}piperazine-1-carboxylate], for which the values for the maximal response (Emax) in assay [1] and in assay [2] were 30% and 73%, respectively. Also, the values for the EC50 in assay [1] and in assay [2] were 10.8 µM and 1.66 µM, respectively.

On to `CC(C)(C)OC(=O)N1CCN(c2ncc(-c3ccc(C(=O)N(CCO)Cc4ccccc4)c(Cl)c3)cc2C#N)CC1` [Example 5-30, tert-butyl 4-(5-{4-[benzyl(2-hydroxyethyl)carbamoyl]-3-chlorophenyl}-3-cyanopyridin-2-yl)piperazine-1-carboxylate], for which the maximal response (Emax) in assay [1] stood at 57%; in assay [2], 73%. For the same compound, the EC50 was determined as 10 µM in assay [1] and 1.19 µM in assay [2].

As a reminder, the Emax is the maximal effect, on the per cent scale that the assay sets.
